The target of experiment [1] is T1, Ba/F3 ETV6-FGFR4-V550L cells (Homo sapiens, UniProt P22455, V550L, cells depend on it).
T1 construct: fused on or other part: N-terminal part of ETV6 (TEL), the oligomerising partner of the fusion; already named as the first entry; P41212 (Transcription factor ETV6)
The experiment in a line: Inhibition of cell proliferation (CCK-8), Ba/F3 ETV6-FGFR4-V550L cells. It is filed as cell-based. Particulars: 72 hours of incubation, read-out: Ba/F3 ETV6-FGFR4-V550L IC50. The procedure, abridged:
(§1)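 Ba/F3 cells expressing ETV6-FGFR4 or ETV6-FGFR4-V550L exposed for 72 h to 9 concentrations from 4-fold serial dilution (0.25% DMSO final). Viability by CCK-8, OD 450 nm after 1–2 h at 37 °C, relative to untreated and cell-free blanks; IC50 from curve fitting.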

Experiment [2] deals with FGFR4 kinase (Homo sapiens, UniProt P22455). The experiment in a line: Inhibition of FGFR4 kinase activity (ULight-labeled JAK-1 peptide, EU665/EU615 reading). The settings on record: FGFR4 kinase 3.85 nM, ATP 100 μM, enzymatic reaction 2 hours. In kind it is biochemical. In outline:
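TR-FRET kinase assay using 3.85 nM FGFR4, 100 μM ATP and 100 nM ULight-JAK-1 (Tyr1023) peptide; 5 min enzyme–compound preincubation, then 2 h at room temperature. Compounds at 11 3-fold dilutions from 2.5 μM down to 0.042 nM, 1% DMSO. IC50 from EU665/EU615 ratio inhibition curves.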

Experiment [3] deals with T2, Ba/F3 ETV6-FGFR4 cells (Homo sapiens, UniProt P22455).
T2 construct: fused on or other part: N-terminal part of ETV6 (TEL), the oligomerising partner that makes the FGFR4 kinase constitutively active; P41212 (Transcription factor ETV6)
Put plainly: Inhibition of cell proliferation (CCK-8), Ba/F3 ETV6-FGFR4 cells. It is filed as cell-based. The settings on record: 72 hours of incubation, read-out: Ba/F3 ETV6-FGFR4 IC50. The procedure, abridged:
as §1

Experiment [4] has as its target FGFR4 V550L kinase (Homo sapiens, UniProt P22455, V550L). The experiment in a line: Inhibition of FGFR4 V550L mutant kinase activity (ULight-labeled PolyGT, EU665/EU615 reading). In kind it is biochemical. Particulars: FGFR4 V550L kinase 1 nM, ATP 10 μM, enzymatic reaction 2 hours. The procedure, abridged:
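TR-FRET kinase assay: 1 nM FGFR4 V550L, 10 μM ATP, 100 nM ULight-PolyGT substrate, 2 h at room temperature after 5 min compound–enzyme preincubation, 1% DMSO. Compound tested as 11-point 3-fold dilution from 2.5 μM to 0.042 nM final. Signal as EU665/EU615 ratio; IC50 fitted from % inhibition.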

T1 sequence (P22455 whole entry V550L, the tested form may be a part): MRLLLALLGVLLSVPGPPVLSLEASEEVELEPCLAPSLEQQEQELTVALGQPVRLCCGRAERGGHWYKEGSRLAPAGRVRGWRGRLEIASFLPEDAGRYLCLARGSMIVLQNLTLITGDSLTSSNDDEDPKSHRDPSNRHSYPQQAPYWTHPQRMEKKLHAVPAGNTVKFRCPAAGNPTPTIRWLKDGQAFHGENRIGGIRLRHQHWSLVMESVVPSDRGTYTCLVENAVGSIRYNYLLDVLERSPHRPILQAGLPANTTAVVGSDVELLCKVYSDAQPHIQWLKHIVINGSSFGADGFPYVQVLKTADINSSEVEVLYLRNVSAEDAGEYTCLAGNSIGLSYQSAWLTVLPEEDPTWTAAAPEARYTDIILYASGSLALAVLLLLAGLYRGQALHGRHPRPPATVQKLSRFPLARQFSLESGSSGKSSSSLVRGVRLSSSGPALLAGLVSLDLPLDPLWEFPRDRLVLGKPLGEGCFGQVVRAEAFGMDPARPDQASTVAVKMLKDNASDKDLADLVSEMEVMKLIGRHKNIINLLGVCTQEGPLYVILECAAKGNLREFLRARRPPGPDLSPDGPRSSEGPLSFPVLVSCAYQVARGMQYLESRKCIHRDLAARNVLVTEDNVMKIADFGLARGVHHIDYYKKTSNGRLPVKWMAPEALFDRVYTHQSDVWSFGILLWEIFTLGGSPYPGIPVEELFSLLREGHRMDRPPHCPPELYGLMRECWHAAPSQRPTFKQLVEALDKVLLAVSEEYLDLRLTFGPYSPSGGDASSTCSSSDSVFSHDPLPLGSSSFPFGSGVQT
T2 sequence (P22455 whole entry, change not shown, the tested form may be a part): as the sequence (P22455 whole entry V550L, the tested form may be a part) above, with L550V counted along it
Chain of FGFR4 kinase (P22455 22-802): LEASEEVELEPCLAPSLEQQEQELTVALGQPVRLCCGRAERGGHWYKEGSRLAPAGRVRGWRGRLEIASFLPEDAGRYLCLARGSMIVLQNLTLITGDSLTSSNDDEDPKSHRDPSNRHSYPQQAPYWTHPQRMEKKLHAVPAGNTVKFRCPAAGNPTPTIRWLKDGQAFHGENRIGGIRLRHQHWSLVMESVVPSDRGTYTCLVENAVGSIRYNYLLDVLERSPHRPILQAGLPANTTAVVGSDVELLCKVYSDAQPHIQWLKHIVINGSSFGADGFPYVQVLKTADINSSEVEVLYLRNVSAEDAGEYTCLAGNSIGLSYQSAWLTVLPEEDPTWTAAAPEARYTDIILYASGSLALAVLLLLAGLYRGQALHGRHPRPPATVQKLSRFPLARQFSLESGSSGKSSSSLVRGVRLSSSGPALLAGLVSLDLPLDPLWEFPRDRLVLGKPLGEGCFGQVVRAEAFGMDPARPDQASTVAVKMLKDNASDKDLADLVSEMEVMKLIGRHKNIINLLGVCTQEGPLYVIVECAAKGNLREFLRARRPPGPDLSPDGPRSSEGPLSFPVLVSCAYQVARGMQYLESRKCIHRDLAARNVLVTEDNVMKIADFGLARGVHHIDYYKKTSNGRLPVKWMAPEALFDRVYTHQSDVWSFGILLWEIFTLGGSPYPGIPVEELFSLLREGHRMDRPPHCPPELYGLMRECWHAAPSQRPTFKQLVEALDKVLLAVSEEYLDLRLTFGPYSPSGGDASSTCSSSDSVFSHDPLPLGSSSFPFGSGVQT
Chain of FGFR4 V550L kinase (P22455 22-802 V550L): as the sequence (P22455 22-802) above, with V529L counted along it

For orientation: IC50 means the point on the concentration scale where inhibition reaches its midpoint. A low value points to greater potency in that assay. Turning to `C=CC(=O)Nc1cc(N2CCC(N3CCN(C)CC3=O)CC2)ccc1Nc1ncc(C#N)c(Nc2ccccc2OC(C)C)n1` [Example 46, N-(2-((5-cyano-4-((2-isopropoxyphenyl)amino)pyrimidin-2-yl)amino)-5-(4-(4-methyl-2-oxopiperazin-1-yl)piperidin-1-yl)phenyl) acrylamide], the GI50 in experiment [1] and in experiment [3] was at most 10 nM each time. Moreover, the IC50 in experiment [2] and in experiment [4] was 10 to 50 nM in each case.
As to `C=CC(=O)Nc1cc(N2CCC(N(C)C3CCC3)CC2)ccc1Nc1ncc(C#N)c(Nc2ccccc2OC(C)C)n1` [Example 62, N-(2-((5-cyano-4-((2-isopropoxyphenyl)amino)pyrimidin-2-yl)amino)-5-(4-(cyclobutyl(methyl)amino)piperidin-1-yl)phenyl) acrylamide], the GI50 in experiment [1] and in experiment [3] was at most 10 nM each time. Further, the IC50 in experiment [2] and in experiment [4] was 10 to 50 nM in each case.
On to `C=CC(=O)Nc1cc(N2CCC(N(C)C3COC3)CC2)ccc1Nc1ncc(C#N)c(Nc2ccccc2OC(C)C)n1` [Example 72, N-(2-((5-cyano-4-((2-isopropoxyphenyl)amino)pyrimidin-2-yl)amino)-5-(4-(methyl(oxetan-3-yl)amino)piperidin-1-yl)phenyl) acrylamide], for which the GI50 in experiment [1] and in experiment [3] was at most 10 nM in each case. For the same molecule, the figures for the half-inhibitory concentration (IC50) in experiment [2] and in experiment [4] were at most 10 nM and 10 to 50 nM, respectively.
`C=CC(=O)Nc1cc(N2CCC(N3CCC3)CC2)ccc1Nc1ncc(C#N)c(Nc2ccccc2OC(C)C)n1` [Example 70, N-(5-(4-(azetidin-1-yl)piperidin-1-yl)-2-((5-cyano-4-((2-isopropoxyphenyl)amino)pyrimidin-2-yl)amino)phenyl) acrylamide]: the GI50 in experiment [1] and in experiment [3] was at most 10 nM each time. In addition, the IC50 in experiment [2] was 50 to 100 nM; in experiment [4], at most 10 nM.
Turning to `C=CC(=O)Nc1cc(N2CCN(C3CCN(C)CC3)CC2)ccc1Nc1ncc(C#N)c(Nc2ccccc2OC(C)C)n1` [Example 49, N-(2-((5-cyano-4-((2-isopropoxyphenyl)amino)pyrimidin-2-yl)amino)-5-(4-(1-methylpiperidin-4-yl)piperazin-1-yl)phenyl) acrylamide], the GI50 in experiment [1] and in experiment [3] was at most 10 nM in each case. Besides, the IC50 in experiment [2] and in experiment [4] was at most 10 nM throughout.
With `C=CC(=O)Nc1cc(N2CCN(C)CC2)c(F)cc1Nc1ncc(C#N)c(Nc2ccccc2OC(C)C)n1` [Example 14, N-(2-((5-cyano-4-((2-isopropoxyphenyl)amino)pyrimidin-2-yl)amino)-4-fluoro-5-(4-methylpiperazin-1-yl)phenyl) acrylamide], the GI50 in experiment [1] and in experiment [3] was at most 10 nM in each case. The IC50 was 50 to 100 nM in experiment [2] and 10 to 50 nM in experiment [4].
Regarding `C=CC(=O)Nc1cc(N2CCN(CC)CC2)ccc1Nc1ncc(C#N)c(Nc2ccc(F)cc2OC(C)C)n1` [Example 27, N-(2-((5-cyano-4-((4-fluoro-2-isopropoxyphenyl)amino)pyrimidin-2-yl)amino)-5-(4-ethylpiperazin-1-yl)phenyl) acrylamide], the GI50 in experiment [1] and in experiment [3] was at most 10 nM each time. Moreover, the IC50 in experiment [2] and in experiment [4] was at most 10 nM each time.
Turning to `C=CC(=O)Nc1cc(N2CCC(N3CCN(CCO)CC3)CC2)ccc1Nc1ncc(C#N)c(Nc2ccccc2OC(C)C)n1` [Example 59, N-(2-((5-cyano-4-((2-isopropoxyphenyl)amino)pyrimidin-2-yl)amino)-5-(4-(4-(2-hydroxyethyl)piperazin-1-yl)piperidin-1-yl)phenyl) acrylamide], the GI50 in experiment [1] and in experiment [3] was at most 10 nM in each case. Besides, the figures for the IC50 in experiment [2] and in experiment [4] were 10 to 50 nM and at most 10 nM, respectively.
On to `C=CC(=O)Nc1cc(N2CCN(CC)CC2)ccc1Nc1ncc(C#N)c(Nc2cc(F)ccc2OC(C)C)n1` [Example 23, N-(2-((5-cyano-4-((5-fluoro-2-isopropoxyphenyl)amino)pyrimidin-2-yl)amino)-5-(4-ethylpiperazin-1-yl)phenyl) acrylamide], for which the GI50 in experiment [1] and in experiment [3] was at most 10 nM each time. The IC50 in experiment [2] was 50 to 100 nM; in experiment [4] it was at most 10 nM.
Consider `C=CC(=O)Nc1cc(N2CCC(N3CCN(C)C(=O)C3)CC2)ccc1Nc1ncc(C#N)c(Nc2ccccc2OC(C)C)n1` [Example 43, N-(2-((5-cyano-4-((2-isopropoxyphenyl)amino)pyrimidin-2-yl)amino)-5-(4-(4-methyl-3-oxopiperazin-1-yl)piperidin-1-yl)phenyl) acrylamide], for which the GI50 in experiment [1] and in experiment [3] was at most 10 nM in each case. Moreover, the IC50 in experiment [2] and in experiment [4] was 10 to 50 nM each time.
As for `C=CC(=O)Nc1cc(N2CCC(N3CCN(C)CC3)CC2)ccc1Nc1ncc(C#N)c(Nc2ccccc2S(=O)(=O)C(C)C)n1` [Example 80, N-(2-((5-cyano-4-((2-(isopropylsulfonyl)phenyl)amino)pyrimidin-2-yl)amino)-5-(4-(4-methylpiperazin-1-yl)piperidin-1-yl)phenyl) acrylamide], the GI50 in experiment [1] and in experiment [3] was at most 10 nM in each case. The IC50 in experiment [2] and in experiment [4] was at most 10 nM in each case.
For `C=CC(=O)Nc1cc(N2CCC(N(C)C3CC3)CC2)ccc1Nc1ncc(C#N)c(Nc2ccccc2OC(C)C)n1` [Example 63, N-(2-((5-cyano-4-((2-isopropoxyphenyl)amino)pyrimidin-2-yl)amino)-5-(4-(cyclopropyl (methyl)amino)piperidin-1-yl)phenyl) acrylamide], the GI50 in experiment [1] and in experiment [3] was at most 10 nM in each case. For the same molecule, the IC50 in experiment [2] was at most 10 nM; in experiment [4] it was 10 to 50 nM.
`C=CC(=O)Nc1cc(N(C)CCN(C)C)ccc1Nc1ncc(C#N)c(Nc2ccccc2OC(C)C)n1` [Example 54]: the GI50 in experiment [1] and in experiment [3] was at most 10 nM throughout. In addition, the results for the IC50 in experiment [2] and in experiment [4] were 10 to 50 nM and at most 10 nM, respectively.
As for `C=CC(=O)Nc1cc(N2CCC(N3CCN(C)CC3)CC2)ccc1Nc1ncc(C#N)c(Nc2ccc(C(N)=O)cc2OC(C)C)n1` [Example 41, 4-((2-((2-acrylamido-4-(4-(4-methylpiperazin-1-yl)piperidin-1-yl)phenyl)amino)-5-cyanopyrimidin-4-yl)amino)-3-isopropoxybenzamide], the GI50 in experiment [1] and in experiment [3] was 100 to 1000 nM each time. The IC50 in experiment [2] is 10 to 50 nM; in experiment [4], at most 10 nM.
On to `C=CC(=O)Nc1cc(N2CCN(CC)CC2)c(F)cc1Nc1ncc(C#N)c(Nc2ccccc2OC(C)C)n1` [Example 15, N-(2-((5-cyano-4-((2-isopropoxyphenyl)amino)pyrimidin-2-yl)amino)-5-(4-ethylpiperazin-1-yl)-4-fluorophenyl) acrylamide], for which the GI50 in experiment [1] and in experiment [3] was at most 10 nM each time. Also, the IC50 in experiment [2] lay within 50 to 100 nM; in experiment [4], 10 to 50 nM.
With `C=CC(=O)Nc1cc(N2CCC(N3CCN(C)C(=O)C3)CC2)ccc1Nc1ncc(C#N)c(Nc2ccc(F)cc2OC(C)C)n1` [Example 45, N-(2-((5-cyano-4-((4-fluoro-2-isopropoxyphenyl)amino)pyrimidin-2-yl)amino)-5-(4-(4-methyl-3-oxopiperazin-1-yl)piperidin-1-yl)phenyl) acrylamide], the GI50 in experiment [1] and in experiment [3] was at most 10 nM each time. Moreover, the IC50 in experiment [2] and in experiment [4] was 10 to 50 nM in each case.
With `C=CC(=O)Nc1cc(N2CCN(CC)CC2)ccc1Nc1ncc(C#N)c(Nc2cc(C(F)(F)F)ccc2OC(C)C)n1` [Example 26, N-(2-((5-cyano-4-((2-isopropoxy-5-(trifluoromethyl)phenyl)amino)pyrimidin-2-yl)amino)-5-(4-ethylpiperazin-1-yl)phenyl) acrylamide], the GI50 in experiment [1] and in experiment [3] was 100 to 1000 nM each time. For the same molecule, the IC50 in experiment [2] and in experiment [4] was 100 to 1000 nM throughout.
`C=CC(=O)Nc1cc(N2CCN(CC)CC2)ccc1Nc1ncc(C#N)c(Nc2ccc(C)cc2OC(C)C)n1` [Example 30, N-(2-((5-cyano-4-((2-isopropoxy-4-methylphenyl)amino)pyrimidin-2-yl)amino)-5-(4-ethylpiperazin-1-yl)phenyl) acrylamide]: the GI50 in experiment [1] and in experiment [3] was at most 10 nM throughout. The IC50 was 10 to 50 nM in experiment [2] and at most 10 nM in experiment [4].
As for `C=CC(=O)Nc1cc(N2CCC(N3CCC(O)CC3)CC2)ccc1Nc1ncc(C#N)c(Nc2ccccc2OC(C)C)n1` [Example 65, N-(2-((5-cyano-4-((2-isopropoxyphenyl)amino)pyrimidin-2-yl)amino)-5-(4-hydroxy-[1,4-bipiperidin]-1′-yl)phenyl) acrylamide], the GI50 in experiment [1] and in experiment [3] was at most 10 nM each time. Moreover, the IC50 is 10 to 50 nM in experiment [2] and at most 10 nM in experiment [4].

Values taken from patent US12582654B2, “Cyano-substituted pyridine and cyano-substituted pyrimidine compound and preparation method therefor and application thereof” (BEIJING SCITECH-MQ PHARMACEUTICALS LIMITED, priority 2019, dated 2026).
